These results are taken from patent US8242118B2, “Arylsulfonamide derivatives for use as CCR3 antagonists in the treatment of inflammatory and immunological disorders” (Axikin Pharmaceuticals Inc., priority 2001, dated 2012).

As usually defined, the IC50 is the midpoint of a concentration-inhibition curve.

Where a name gives a salt, the structure may show the parent alone.

The target in this experiment is T1, Human CCR3 (Homo sapiens, UniProt P51677).
T1 construct: The cloned CCR3 cDNA was constructed with pcDNA3 vector and transfected into a IC562 cell line; expressed in transfected cells
T1 sequence (P51677 1-355): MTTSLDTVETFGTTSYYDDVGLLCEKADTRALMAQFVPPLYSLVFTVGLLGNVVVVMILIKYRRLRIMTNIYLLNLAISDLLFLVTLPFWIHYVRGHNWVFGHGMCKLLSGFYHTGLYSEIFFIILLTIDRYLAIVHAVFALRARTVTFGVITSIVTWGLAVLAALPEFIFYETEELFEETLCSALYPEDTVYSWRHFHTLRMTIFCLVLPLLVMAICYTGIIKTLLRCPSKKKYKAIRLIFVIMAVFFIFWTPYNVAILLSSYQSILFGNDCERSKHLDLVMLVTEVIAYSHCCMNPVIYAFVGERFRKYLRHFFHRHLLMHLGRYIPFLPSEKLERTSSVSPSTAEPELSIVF
Kind of experiment: Calcium mobilization assay, eotaxin-stimulated. Type of experiment: cell-based. The following applies: human CCR3-transformed K562 cells, 10 nM eotaxin; compounds of about 40 to 90% purity; read-out: Activity grade Ca2+ (IC50 class). The protocol: • Human CCR3-transformed K562 cells were used. The cloned CCR3 cDNA was constructed with pcDNA3 vector and transfected into a IC562 cell line. The human CCR3-transformed K562 cells were maintained in RPMI-1640 (Cat.#22400-089, Life Technologies) supplemented with 10% FCS (Cat.#A-1115-L, Hyclone), 55 μM 2-mercaptoethanol (Cat.#21985-023, Life Technologies), 1 mM sodium pyruvate (Cat.#11360-070, Life Technologies), 100 units/ml of penicillin G and 100 μg/ml of streptomycin (Cat.#15140-122, Life Technologies), and 0.4 mg/ml of Geneticin (Cat.#10131-035, Life Technologies)(hereinafter called “culture medium”). Before the receptor binding assay, cells were pretreated with 5 mM sodium butyrate (Cat.#193-01522, Wako)-containing the culture medium (2×10^5 cells/ml) for 20-24 hours to increase the expression of CCR3. (2) Receptor Binding Assay (RBA) • Butyrate-pretreated cells, suspended in binding buffer (25 mM HEPES pH 7.6, 1 mM CaCl2, 5 mM MgCl2, 0.5% BSA, 0.1% NaN3) at a cell density of 2×10^6 cells/ml, were added into 60 μl/well in the 96-well round bottom polypropylene plate (Cat.#3365, Costar). Compounds, diluted with the binding buffer (4-times higher concentration of the final concentration), were added into 30 μl/well in the polypropylene plate. [^125I]-labeled human eotaxin (Cat.#IM290, Amersham Pharmacia Biotech), diluted with the binding buffer at the concentration of 0.4 nM (final concentration; 0.1 nM), was added into 30 μl/well in the polypropylene plate. Total 120 μl/well of binding reaction mixture (60 μl/well of cell suspension, 30 μl/well of compound solution, and 30 μl/well of [^125I]-labeled eotaxin) were incubated in the polypropylene plate for 1 hour at room temperature after the incubation, 100 μl/well of the reaction mixture was transferred to a filtration plate (Cat.#MAFB-N0B, Millipore), and washed with the washing buffer (25 mM HEPES pH 7.6, 1 mM CaCl2, 5 mM MgCl2, 0.5% BSA, 0.1% NaN3, 0.5 M NaCl) twice. The 96-well filtration plate was pretreated with 100 μl/well of 0.5% polyethylenimine (Cat.#P-3143, Sigma) for 2-4 hours at room temperature and washed with the washing buffer twice before use. The non-specific binding was determined by parallel incubation in the presence of 500 nM of non-labeled eotaxin (Cat.#23209, Genzyme Techne). The radioactivities remained on the filter were measured by liquid scintillation counter (TopCount™, Packard) after an addition of 45 μl/well of scintillant (Microscint20, Cat.#6013621, Packard). The inhibition percent at each concentration of compound was calculated, and IC50 values were determined from the inhibition curve. [Determination of IC50 Values of Compounds in Calcium Mobilization Assay] (IC50 Ca2+) (1) Cell • Human CCR3-transformed K562 cells were used. The human CCR3-transformed K562 cells were maintained in RPMI-1640 supplemented with 10% FCS, 55 μM 2-mercaptoethanol (Cat.#21985-023, Life Technologies), 1 mM sodium pyruvate, 100 units/ml of penicillin G and 100 μg/ml of streptomycin and 0.4 mg/ml of Geneticin. Before the calcium mobilization assay, cells were pretreated with 5 mM sodium butyrate-containing the culture medium (2×10^5 cells/ml) for 20-24 hours to increase the expression of CCR3. (2) Calcium Mobilization Assay • Butyrate-pretreated cells were loaded with Fluo-3AM (Cat.#F-1242, Molecular Probes) in loading buffer (Hanks' solution Cat.#05906 Nissui, 20 mM HEPES pH 7.6, 0.1% BSA, 1 mM probenecid Cat.#P-8761 Sigma, 1 μM Fluo-3AM, 0.01% pluronic F-127 Cat.#P-6866 Molecular Probes) at a cell density of 1×10^7 cells/ml. Then, cells were washed with calcium assay buffer (Hanks' solution Cat.#05906 Nissui, 20 mM HEPES pH 7.6, 0.1% BSA, 1 mM Probenecid Cat.#P-8761 Sigma). The cell suspension (3.3×10^6 cells/ml) was added into 60 μl/well in the 96-well clear bottom black plate (Cat.#3904, Costar). Compounds, diluted (5-times concentration of the final concentration) with the calcium assay buffer, were added into 20 μl/well in the plate 10 minutes before assay. […]
A general note: Calcium assays in cells follow changes in intracellular calcium, usually with a dye or a luminescent sensor.
With `Cc1cccc(Oc2ccc([N+](=O)[O-])cc2S(=O)(=O)N2CCNCC2)c1` [Example 1-24], the IC50 was below 1000 nM.
Consider `COC(=O)c1cncc(Oc2ccc([N+](=O)[O-])cc2S(=O)(=O)N2CCNCC2)c1` [Example 1-53], for which the IC50 was in the range of 1000 to 10000 nM.
Take `NCCNS(=O)(=O)c1cc([N+](=O)[O-])ccc1Oc1cc(Cl)cc(Cl)c1` [Example 1-95]: the IC50 is below 1000 nM.
On to `O=[N+]([O-])c1ccc(Oc2cc(Cl)cc(Cl)c2)c(S(=O)(=O)NCC2CCNCC2)c1` [Example 1-96], for which the IC50 was below 1000 nM.
Consider `CN(C)CC(C)(C)CNS(=O)(=O)c1cc([N+](=O)[O-])ccc1Sc1cc(Cl)cc(Cl)c1` [Example 2-4], for which the IC50 was below 1000 nM.
Next, `O=[N+]([O-])c1ccc(Sc2ccccc2)c(S(=O)(=O)N2CCNCC2)c1` [Example 2-14]: 1000 to 10000 nM; `O=[N+]([O-])c1ccc(Nc2cccc(Cl)c2)c(S(=O)(=O)N2CCNCC2)c1` [Example 3-7]: below 1000 nM; `O=[N+]([O-])c1ccc(Nc2ccc(Cl)cc2)c(S(=O)(=O)N2CCNCC2)c1` [Example 3-8]: below 1000 nM.
To `O=[N+]([O-])c1ccc(Nc2ccccc2F)c(S(=O)(=O)N2CCNCC2)c1` [Example 3-9] belongs below 1000 nM; to `O=[N+]([O-])c1ccc(Nc2cccc(F)c2)c(S(=O)(=O)N2CCNCC2)c1` [Example 3-10], below 1000 nM.
Next, `O=[N+]([O-])c1ccc(Nc2ccc(F)cc2)c(S(=O)(=O)N2CCNCC2)c1` [Example 3-11]: below 1000 nM.
Regarding `COc1ccccc1Nc1ccc([N+](=O)[O-])cc1S(=O)(=O)N1CCNCC1` [Example 3-12], the half-maximal inhibitory concentration (IC50) is below 1000 nM.
Take `CN(C)CCCCNS(=O)(=O)c1cc([N+](=O)[O-])ccc1Oc1cc(Cl)cc(Cl)c1` [Example 4-39]: the IC50 was below 1000 nM.
To `CC1CCCCN1CCCNS(=O)(=O)c1cc([N+](=O)[O-])ccc1Oc1cc(Cl)cc(Cl)c1` (centres unmarked) [Example 4-40] belongs below 1000 nM.
Next, `O=[N+]([O-])c1ccc(Oc2cc(Cl)cc(Cl)c2)c(S(=O)(=O)NCCN2CCCCC2)c1` [Example 4-41]: below 1000 nM.
As for `Cc1cc(C)cc(Oc2cc(Cl)c(C#N)cc2S(=O)(=O)N2CCNCC2)c1` [Example 12-2], the IC50 fell in the range of 1000 to 10000 nM.
Next, `N#Cc1cc(S(=O)(=O)N2CCNCC2)c(Oc2cc(Cl)cc(Cl)c2)cc1Cl` [Example 12-3]: 1000 to 10000 nM; `N#Cc1ccc(Oc2cc(Cl)cc(Cl)c2)c(S(=O)(=O)N2CC[C@H](N)C2)c1` [Example 13-1, 1-{5-cyano-2-(3,5-dichlorophenoxy)phenylsulfonyl}-(3S)-aminopyrrolidine hydrochloride]: below 1000 nM.
To `N#Cc1ccc(Oc2cc(Cl)cc(Cl)c2)c(S(=O)(=O)NCCN)c1` [Example 13-8] belongs below 1000 nM; to `Cc1cc(C)cc(Oc2ccc(C(=O)O)cc2S(=O)(=O)N2CCNCC2)c1` [Example 14-1, 4-(3,5-dimethylphenoxy)-3-(1-piperazinylsulfonyl)benzoic acid hydrochloride], below 1000 nM.
Turning to `O=C(O)c1ccc(Oc2cc(Cl)cc(Cl)c2)c(S(=O)(=O)N2CCNCC2)c1` [Example 14-3], the IC50 is below 1000 nM.
As to `O=C(O)c1cc(S(=O)(=O)N2CCNCC2)c(Oc2cc(Cl)cc(Cl)c2)cc1Cl` [Example 14-4], the IC50 is 1000 to 10000 nM.
Next, `Cc1cc(C)cc(Oc2ccc(C(N)=O)cc2S(=O)(=O)N2CCNCC2)c1` [Example 15-1, 4-(3,5-dimethylphenoxy)-3-(1-piperazinylsulfonyl)benzamide hydrochloride]: below 1000 nM; `COC(=O)c1ccc(Oc2cc(C)cc(C)c2)c(S(=O)(=O)N2CCNCC2)c1` [Example 15-2, methyl 4-(3,5-dimethylphenoxy)-3-(1-piperazinylsulfonyl)benzoate hydrochloride]: below 1000 nM; `Cc1cc(C)cc(Oc2cc(Cl)c(C(N)=O)cc2S(=O)(=O)N2CCNCC2)c1` [Example 15-3]: 1000 to 10000 nM.
Consider `NC(=O)c1cc(F)c(Oc2cc(Cl)cc(Cl)c2)c(S(=O)(=O)N2CCNCC2)c1` [Example 15-4], for which the half-inhibitory concentration (IC50) fell in the range of 1000 to 10000 nM.
Consider `Cc1cc(C)cc(Oc2ccc(CO)cc2S(=O)(=O)N2CCNCC2)c1` [Example 16-1, [4-(3,5-dimethylphenoxy)-3-(1-piperazinylsulfonyl)phenyl]methanol hydrochloride], for which the IC50 was below 1000 nM.
To `N#Cc1ccc([S+]([O-])c2cc(Cl)cc(Cl)c2)c(S(=O)(=O)N2CCNCC2)c1` (centres unmarked) [Example 19-1, 4-[(3,5-dichlorophenyl)sulfinyl]-3-(1-piperazinylsulfonyl)benzonitrile hydrochloride] belongs 1000 to 10000 nM; to `CN(c1cc(Cl)cc(Cl)c1)c1ccc(C#N)cc1S(=O)(=O)N1CCNCC1` [Example 21-1, 4-[(3,5-dichlorophenyl)(methyl)amino]-3-(1-piperazinylsulfonyl)benzonitrile hydrochloride], 1000 to 10000 nM.
Next, `Cc1cc(C)cc(N(C)c2ccc([N+](=O)[O-])cc2S(=O)(=O)N2CCNCC2)c1` [Example 21-2]: below 1000 nM.
Next, `Cc1cc(C)cc(Oc2ccc(C(=O)NCCC#N)cc2S(=O)(=O)N2CCNCC2)c1` [Example 22-1, N-(2-cyanoethyl)-4-(3,5-dimethylphenoxy)-3-(1-piperazinylsulfonyl)benzamide hydrochloride]: below 1000 nM; `Cc1cc(C)cc(Oc2ccc(C(=O)NCCC(N)=O)cc2S(=O)(=O)N2CCNCC2)c1` [Example 22-2, N-[4-(3,5-dimethylphenoxy)-3-(1-piperazinylsulfonyl)benzoyl]-beta-alanineamide hydrochloride]: below 1000 nM; `Cc1cc(C)cc(Oc2ccc(-c3nnnn3CCC#N)cc2S(=O)(=O)N2CCNCC2)c1` [Example 22-3, 3-{5-[4-(3,5-dimethylphenoxy)-3-(1-piperazinylsulfonyl)phenyl]-1H-tetraazol-1-yl}propanenitrile hydrochloride]: below 1000 nM.
As for `Cc1cc(C)cc(Oc2ccc(-c3nnn[nH]3)cc2S(=O)(=O)N2CCNCC2)c1` [Example 22-4, 1-{[2-(3,5-dimethylphenoxy)-5-(1H-tetraazol-5-yl)phenyl]sulfonyl}piperazine hydrochloride], the IC50 is below 1000 nM.
Consider `Cc1cc(C)cc(Oc2cc([N+](=O)[O-])ccc2S(=O)(=O)N2CCNCC2)c1` [Example 23-1, 1-{2-(3,5-dimethylphenoxy)-4-nitrophenylsulfonyl}piperazine hydrochloride], for which the IC50 was below 1000 nM.
